pEC50: −log10 of the molar value.
Experiments:
Human betaherpesvirus 5 [1] = format: functional, organism-based; conditions: Human betaherpesvirus 5, Davis, HEL
[2] = (§1) Cytotoxicity against HEL cells assessed as alteration of cell morphology by microscopic analysis; format: toxicity, cell-based; conditions: human, HEL cells
Vaccinia virus = experiment: microbe, parasite or virus in culture; conditions: Orthopoxvirus vaccinia, HEL
Human alphaherpesvirus 3 [3] = format: functional, organism-based; conditions: Human alphaherpesvirus 3, OKA, HEL
Human alphaherpesvirus 3 [4] = format: functional, organism-based; conditions: Human alphaherpesvirus 3, O7-1, HEL
Human alphaherpesvirus 1 [5] = format: functional, organism-based; conditions: Human alphaherpesvirus 1, KOS, HEL
Human alphaherpesvirus 1 [6] = format: functional, organism-based; conditions: Human alphaherpesvirus 1, KOS, HEL; remark: listed apart in the source
Human betaherpesvirus 5 [7] = format: functional, organism-based; conditions: Human betaherpesvirus 5, AD-169, HEL
Human adenovirus 2 = format: functional, organism-based; conditions: Human mastadenovirus C, HEL
Human alphaherpesvirus 2 = format: functional, organism-based; conditions: Human alphaherpesvirus 2, G, HEL
HEL = experiment: as §1; format: toxicity, cell-based; conditions: human, hel

SMILES	pEC50 (Human betaherpesvirus 5 [1])	MCC [2]	pEC50 (Vaccinia virus)	pEC50 (Human alphaherpesvirus 3 [3])	pEC50 (Human alphaherpesvirus 3 [4])	pEC50 (Human alphaherpesvirus 1 [5])	pEC50 (Human alphaherpesvirus 1 [6])	pEC50 (Human betaherpesvirus 5 [7])	pEC50 (Human adenovirus 2)	pEC50 (Human alphaherpesvirus 2)	Activity (HEL)
Nc1nc2c(ncn2COC(CO)CO)c(=O)[nH]1 [GANCICLOVIR]	6.20	> 100 µM	< 4.00	–	–	–	–	–	–	–	–
O=c1[nH]c(=O)n([C@H]2C[C@H](O)[C@@H](CO)O2)cc1/C=C/Br [BRIVUDINE]	–	> 250 µM	–	7.38	5.62	–	–	–	–	–	–
O=c1[nH]c(=O)n([C@@H]2CN[C@H](CO)[C@@H](O)C2)cc1I	4.17	> 100 µM	4.30	4.30	4.21	4.35	4.47	4.12	4.30	4.35	–
Nc1nc(=O)n([C@@H]2CN[C@H](CO)[C@@H](O)C2)cc1F	–	–	–	–	–	–	–	–	–	–	Non-Toxic
Nc1ccn(C[C@@H](CO)OCP(=O)(O)O)c(=O)n1 [CIDOFOVIR]	–	> 250 µM	–	–	–	–	6.00	–	–	–	–
Nc1nc2c(ncn2COCCO)c(=O)[nH]1 [ACYCLOVIR]	–	> 250 µM	< 3.60	6.15	4.83	–	3.90	–	–	–	–

— ChEMBL document CHEMBL5108006, “Synthesis and antiviral properties of biomimetic iminosugar-based nucleosides” (Eur J Med Chem, 2022)
